Legend:
[1] = test system: DERL-7 (IL-2 2.5 ng/mL); test: drug sensitivity score (DSS) (DSS units); higher = more sensitive; extreme values may be limits of the assay; details: 72 h
[2] = test system: normal primary NK cells, pool 3 (3 donors) (IL-2 2.5 ng/mL); test: as above; details: 72 h
[3] = test system: normal primary NK cells, pool 1 (3 donors), resting (IL-2 0 ng/mL); test: as above; details: 72 h
[4] = test system: YT (IL-2 2.5 ng/mL); test: as above; details: 72 h
[5] = test system: normal primary NK cells, pool 2 (3 donors) (IL-2 2.5 ng/mL); test: as above; details: 72 h
[6] = test system: IMC-1 (IL-2 20 ng/mL); test: as above; details: 72 h
[7] = test system: NKL (IL-2 2.5 ng/mL); test: as above; details: 72 h
[8] = test system: NK-92 (IL-2 2.5 ng/mL); test: as above; details: 72 h
[9] = test system: KAI3 (IL-2 2.5 ng/mL); test: as above; details: 72 h
[10] = test system: NK-YS (IL-2 2.5 ng/mL); test: as above; details: 72 h
[11] = test system: KHYG-1 (IL-2 2.5 ng/mL); test: as above; details: 72 h
[12] = test system: SNK-6 (IL-2 2.5 ng/mL); test: as above; details: 72 h
[13] = test system: normal primary NK cells, pool 1 (3 donors) (IL-2 2.5 ng/mL); test: as above; details: 72 h
[14] = test system: DERL-7 (IL-2 2.5 ng/mL); test: percent inhibition of viability; higher = more inhibition; details: 72 h
[15] = test system: normal primary NK cells, pool 3 (3 donors) (IL-2 2.5 ng/mL); test: as above; details: 72 h
[16] = test system: normal primary NK cells, pool 1 (3 donors), resting (IL-2 0 ng/mL); test: as above; details: 72 h
[17] = test system: YT (IL-2 2.5 ng/mL); test: as above; details: 72 h
[18] = test system: normal primary NK cells, pool 2 (3 donors) (IL-2 2.5 ng/mL); test: as above; details: 72 h
[19] = test system: IMC-1 (IL-2 20 ng/mL); test: as above; details: 72 h
[20] = test system: NKL (IL-2 2.5 ng/mL); test: as above; details: 72 h
[21] = test system: NK-92 (IL-2 2.5 ng/mL); test: as above; details: 72 h
[22] = test system: KAI3 (IL-2 2.5 ng/mL); test: as above; details: 72 h
[23] = test system: NK-YS (IL-2 2.5 ng/mL); test: as above; details: 72 h
[24] = test system: KHYG-1 (IL-2 2.5 ng/mL); test: as above; details: 72 h
[25] = test system: SNK-6 (IL-2 2.5 ng/mL); test: as above; details: 72 h
[26] = test system: normal primary NK cells, pool 1 (3 donors) (IL-2 2.5 ng/mL); test: as above; details: 72 h
[27] = test system: normal NK cells expanded with K562-aAPC; test: drug sensitivity score (DSS) (DSS units); higher = more sensitive; extreme values may be limits of the assay; details: 72 h; IL-2 2.5 ng/mL
Protocol: (§1)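 Drug sensitivity and resistance testing on K562-aAPC-expanded normal NK cells: 5 concentrations (10-fold steps over a 10,000-fold range), 72 h at 37 °C, viability by CellTiter-Glo normalised to DMSO and benzethonium chloride controls; DSS from the fitted curve.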

[28] = test system: normal NK cells expanded with K562-aAPC; test: percent inhibition of viability; higher = more inhibition; details: 72 h, IL-2 2.5 ng/mL
Protocol: as §1

## CC[C@H](NC(=O)[C@H](C)NC)C(=O)N1C[C@@H](O)C[C@H]1Cc1c(-c2[nH]c3cc(F)ccc3c2C[C@@H]2C[C@H](O)CN2C(=O)[C@H](CC)NC(=O)[C@H](C)NC)[nH]c2cc(F)ccc12 [Birinapant] (max concentration tested 1000 nM)
[1]
  drug sensitivity score: 10.5
[2]
  drug sensitivity score: 1.6
[3]
  drug sensitivity score: 3.83
[4]
  drug sensitivity score: 0
[5]
  drug sensitivity score: 3.2
[6]
  drug sensitivity score: 2.52
[7]
  drug sensitivity score: 3.5
[8]
  drug sensitivity score: 2.35
[9]
  drug sensitivity score: 1
[10]
  drug sensitivity score: 0
[11]
  drug sensitivity score: 0.34
[12]
  drug sensitivity score: 0
[13]
  drug sensitivity score: 3.88
[14]; 0.1 nM
  percent inhibition of viability: 7.8%
[14]; 1 nM
  percent inhibition of viability: 5.54%
[14]; 10 nM
  percent inhibition of viability: 23.2%
[14]; 100 nM
  percent inhibition of viability: 43.1%
[14]; 1000 nM
  percent inhibition of viability: 46.6%
[15]; 0.1 nM
  percent inhibition of viability: -4.73%
[15]; 1 nM
  percent inhibition of viability: -7.57%
[15]; 10 nM
  percent inhibition of viability: -8.06%
[15]; 100 nM
  percent inhibition of viability: -3.61%
[15]; 1000 nM
  percent inhibition of viability: 38.2%
[16]; 0.1 nM
  percent inhibition of viability: -23.1%
[16]; 1 nM
  percent inhibition of viability: -28.9%
[16]; 10 nM
  percent inhibition of viability: -10.4%
[16]; 100 nM
  percent inhibition of viability: -2.86%
[16]; 1000 nM
  percent inhibition of viability: 73.8%
[17]; 0.1 nM
  percent inhibition of viability: 1.52%
[17]; 1 nM
  percent inhibition of viability: -1.94%
[17]; 10 nM
  percent inhibition of viability: 2.55%
[17]; 100 nM
  percent inhibition of viability: 4.56%
[17]; 1000 nM
  percent inhibition of viability: 2.39%
[18]; 0.1 nM
  percent inhibition of viability: -6.05%
[18]; 1 nM
  percent inhibition of viability: -7.14%
[18]; 10 nM
  percent inhibition of viability: -11.2%
[18]; 100 nM
  percent inhibition of viability: 2.7%
[18]; 1000 nM
  percent inhibition of viability: 53.1%
[19]; 0.1 nM
  percent inhibition of viability: -3.47%
[19]; 1 nM
  percent inhibition of viability: 1.41%
[19]; 10 nM
  percent inhibition of viability: -0.22%
[19]; 100 nM
  percent inhibition of viability: 1.34%
[19]; 1000 nM
  percent inhibition of viability: 45.6%
[20]; 0.1 nM
  percent inhibition of viability: 5.63%
[20]; 1 nM
  percent inhibition of viability: 0.8%
[20]; 10 nM
  percent inhibition of viability: 3.21%
[20]; 100 nM
  percent inhibition of viability: 19.2%
[20]; 1000 nM
  percent inhibition of viability: 32.2%
[21]; 0.1 nM
  percent inhibition of viability: -4.58%
[21]; 1 nM
  percent inhibition of viability: -12.3%
[21]; 10 nM
  percent inhibition of viability: 5.84%
[21]; 100 nM
  percent inhibition of viability: 11.1%
[21]; 1000 nM
  percent inhibition of viability: 31%
[22]; 0.1 nM
  percent inhibition of viability: 1.71%
[22]; 1 nM
  percent inhibition of viability: -5.41%
[22]; 10 nM
  percent inhibition of viability: -0.72%
[22]; 100 nM
  percent inhibition of viability: 9.21%
[22]; 1000 nM
  percent inhibition of viability: 15.7%
[23]; 0.1 nM
  percent inhibition of viability: -2.88%
[23]; 1 nM
  percent inhibition of viability: -9.14%
[23]; 10 nM
  percent inhibition of viability: -8.38%
[23]; 100 nM
  percent inhibition of viability: -5.45%
[23]; 1000 nM
  percent inhibition of viability: -8.45%
[24]; 0.1 nM
  percent inhibition of viability: -2.97%
[24]; 1 nM
  percent inhibition of viability: -5.19%
[24]; 10 nM
  percent inhibition of viability: -7.39%
[24]; 100 nM
  percent inhibition of viability: -1.77%
[24]; 1000 nM
  percent inhibition of viability: 17.7%
[25]; 0.1 nM
  percent inhibition of viability: -1.62%
[25]; 1 nM
  percent inhibition of viability: -1.64%
[25]; 10 nM
  percent inhibition of viability: -7.31%
[25]; 100 nM
  percent inhibition of viability: -10.8%
[25]; 1000 nM
  percent inhibition of viability: -16.1%
[26]; 0.1 nM
  percent inhibition of viability: -9.47%
[26]; 1 nM
  percent inhibition of viability: -11.8%
[26]; 10 nM
  percent inhibition of viability: 3.46%
[26]; 100 nM
  percent inhibition of viability: 0.49%
[26]; 1000 nM
  percent inhibition of viability: 69.2%
[27]
  drug sensitivity score: 3.47
[28]; 0.1 nM
  percent inhibition of viability: -2.92%
[28]; 1 nM
  percent inhibition of viability: -0.28%
[28]; 10 nM
  percent inhibition of viability: 2.8%
[28]; 100 nM
  percent inhibition of viability: 10.2%
[28]; 1000 nM
  percent inhibition of viability: 38.9%

From the supplement of paper PMC5908809
